In patent US20230286970A1, “NOVEL OXADIAZOLE-BASED SELECTIVE HDAC6 INHIBITORS” (ITALFARMACO S.P.A., priority 2020, published 2023):

Legend:
[1] = target: recombinant human HDAC1 (Homo sapiens (Human), UniProt Q13547); assay: Enzymatic screening, HDAC1 inhibition (fluorogenic FdL_G substrate); type: biochemical
Outline: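 Recombinant human HDAC1 inhibition was measured fluorometrically using the FLUOR DE LYS-Green (FdL_G) substrate. Compounds at 8 doses (1% DMSO final) in Tris-HCl pH 8 buffer with NaCl, Tween-20 and glycerol were preincubated in triplicate with enzyme and 1 mg/mL BSA, then given substrate. Developer I plus 2 μM TSA was added, and fluorescence read after 25 minutes in the dark.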

[2] = target: recombinant human HDAC6 (Homo sapiens (Human), UniProt Q9UBN7); assay: Enzymatic screening, HDAC6 inhibition (fluorogenic FdL_G substrate); type: biochemical
Outline: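 Enzyme was preincubated with compound (8 doses, triplicate, 1% DMSO) in 25 mM Tris-HCl pH 8, 130 mM NaCl, 0.05% Tween-20, 10% glycerol, with BSA. A FLUOR DE LYS-Green substrate was then added, and fluorescence was read after developer plus 2 μM TSA.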

Chain of recombinant human HDAC1 (Q13547 whole entry): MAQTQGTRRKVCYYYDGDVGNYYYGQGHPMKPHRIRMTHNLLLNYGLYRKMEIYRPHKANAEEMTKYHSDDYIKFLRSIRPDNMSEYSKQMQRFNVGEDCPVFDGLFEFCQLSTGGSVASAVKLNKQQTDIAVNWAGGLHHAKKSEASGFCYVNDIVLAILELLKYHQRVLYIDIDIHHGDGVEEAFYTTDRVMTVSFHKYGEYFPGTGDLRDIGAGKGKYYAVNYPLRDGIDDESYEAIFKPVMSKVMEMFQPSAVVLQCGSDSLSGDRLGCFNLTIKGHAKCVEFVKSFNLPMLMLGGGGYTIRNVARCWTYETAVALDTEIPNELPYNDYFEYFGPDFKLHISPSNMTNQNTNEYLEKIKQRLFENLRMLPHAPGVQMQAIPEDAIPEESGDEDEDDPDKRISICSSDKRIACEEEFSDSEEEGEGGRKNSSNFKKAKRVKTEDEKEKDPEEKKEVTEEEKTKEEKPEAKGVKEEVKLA
Chain of recombinant human HDAC6 (Q9UBN7 whole entry): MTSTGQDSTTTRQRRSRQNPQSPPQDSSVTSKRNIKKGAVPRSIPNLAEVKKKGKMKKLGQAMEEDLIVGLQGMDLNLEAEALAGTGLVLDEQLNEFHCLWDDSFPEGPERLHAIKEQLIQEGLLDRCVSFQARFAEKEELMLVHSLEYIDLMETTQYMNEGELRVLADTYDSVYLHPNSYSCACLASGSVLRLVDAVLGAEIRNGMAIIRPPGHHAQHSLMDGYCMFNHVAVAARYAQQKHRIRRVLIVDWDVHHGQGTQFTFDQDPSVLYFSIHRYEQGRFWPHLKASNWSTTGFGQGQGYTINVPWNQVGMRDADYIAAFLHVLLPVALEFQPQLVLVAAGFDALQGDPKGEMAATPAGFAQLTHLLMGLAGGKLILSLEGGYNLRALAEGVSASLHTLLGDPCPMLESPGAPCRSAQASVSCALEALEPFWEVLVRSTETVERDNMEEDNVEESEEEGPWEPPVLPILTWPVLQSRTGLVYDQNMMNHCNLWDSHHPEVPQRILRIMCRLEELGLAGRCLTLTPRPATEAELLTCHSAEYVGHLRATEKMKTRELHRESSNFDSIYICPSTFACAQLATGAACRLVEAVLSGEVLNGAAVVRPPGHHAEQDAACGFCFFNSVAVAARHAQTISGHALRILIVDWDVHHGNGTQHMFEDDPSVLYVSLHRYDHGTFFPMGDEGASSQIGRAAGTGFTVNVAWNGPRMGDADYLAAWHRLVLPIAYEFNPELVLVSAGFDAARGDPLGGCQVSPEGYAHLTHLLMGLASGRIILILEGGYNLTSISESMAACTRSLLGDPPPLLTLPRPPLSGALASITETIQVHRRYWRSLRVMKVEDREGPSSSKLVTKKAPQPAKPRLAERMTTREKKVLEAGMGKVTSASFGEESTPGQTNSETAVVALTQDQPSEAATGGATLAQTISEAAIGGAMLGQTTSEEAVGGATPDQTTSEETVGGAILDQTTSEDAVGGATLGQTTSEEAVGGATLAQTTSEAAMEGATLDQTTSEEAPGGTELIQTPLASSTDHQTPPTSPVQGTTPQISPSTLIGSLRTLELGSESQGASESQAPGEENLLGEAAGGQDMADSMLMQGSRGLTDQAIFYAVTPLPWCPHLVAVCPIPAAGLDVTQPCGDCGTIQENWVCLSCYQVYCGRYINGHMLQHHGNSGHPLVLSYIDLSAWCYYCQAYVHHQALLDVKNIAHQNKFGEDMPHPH

Compound | IC50 [1] [µM] | IC50 [2] [µM]
O=C(Nc1ccc(-c2nnn(Cc3ncc(-c4nnc(C(F)F)o4)cn3)n2)cn1)C(F)F [compound 68, N-(5-(2-((5-(5-(difluoromethyl)-1,3,4-oxadiazol-2-yl)pyrimidin-2-yl)methyl)-2H-tetrazol-5-yl)pyridin-2-yl)-2,2-difluoroacetamide] | > 200 | 0.033
CC(=O)Nc1cccc(-c2cn(Cc3c(F)cc(-c4nnc(C(F)F)o4)cc3F)nn2)c1 [compound 70, N-(3-(1-(4-(5-(difluoromethyl)-1,3,4-oxadiazol-2-yl)-2,6-difluorobenzyl)-1H-1,2,3-triazol-4-yl)phenyl)acetamide] | > 200 | 0.034
O=C(Nc1cccc(-c2nnn(Cc3ccc(-c4nnc(C(F)F)o4)cc3)n2)c1)N1CCOCC1 [compound 71, N-(3-(2-(4-(5-(difluoromethyl)-1,3,4-oxadiazol-2-yl)benzyl)-2H-tetrazol-5-yl)phenyl)morpholine-4-carboxamide] | > 200 | 0.03
NC(=O)c1cc(-c2nnn(Cc3ccc(-c4nnc(C(F)F)o4)cc3)n2)ccc1N [compound 72, 2-amino-5-(2-(4-(5-(difluoromethyl)-1,3,4-oxadiazol-2-yl)benzyl)-2H-tetrazol-5-yl)benzamide] | > 200 | 0.03
Nc1cncc(-c2cn(Cc3c(F)cc(-c4nnc(C(F)F)o4)cc3F)nn2)c1 [compound 73, 5-(1-(4-(5-(difluoromethyl)-1,3,4-oxadiazol-2-yl)-2,6-difluorobenzyl)-1H-1,2,3-triazol-4-yl)pyridin-3-amine] | > 200 | 0.031
FC(F)c1nnc(-c2ccc(Cn3cc(-c4cnc5cccnn45)nn3)nc2)o1 [compound 74, 2-(difluoromethyl)-5-(6-((4-(imidazo[1,2-b]pyridazin-3-yl)-1H-1,2,3-triazol-1-yl)methyl)pyridin-3-yl)-1,3,4-oxadiazole] | > 200 | 0.031
Nc1ccc(-c2nnn(Cc3ncc(-c4nnc(C(F)F)o4)cn3)n2)cn1 [compound 77, 5-(2-((5-(5-(difluoromethyl)-1,3,4-oxadiazol-2-yl)pyrimidin-2-yl)methyl)-2H-tetrazol-5-yl)pyridin-2-amine] | > 200 | 0.035
FC(F)c1nnc(-c2ccc(Cn3nnc(-c4cncc(Br)c4)n3)cc2)o1 [compound 82, 2-(4-((5-(5-bromopyridin-3-yl)-2H-tetrazol-2-yl)methyl)phenyl)-5-(difluoromethyl)-1,3,4-oxadiazole] | > 200 | 0.033
O=C1NCCc2ccc(-c3nnn(Cc4ccc(-c5nnc(C(F)F)o5)cc4)n3)cc21 [compound 83, 7-[2-[[4-[5-(difluoromethyl)-1,3,4-oxadiazol-2-yl]phenyl]methyl]tetrazol-5-yl]-3,4-dihydro-2H-isoquinolin-1-one] | > 200 | 0.033
FC(F)c1nnc(-c2ccc(Cn3cc(-c4cccs4)nn3)nc2)o1 [compound 85, 2-(difluoromethyl)-5-(6-((4-(thiophen-2-yl)-1H-1,2,3-triazol-1-yl)methyl)pyridin-3-yl)-1,3,4-oxadiazole] | > 200 | 0.033
FC(F)c1nnc(-c2ccc(Cn3nnc(-c4ccc(CN5CCCCC5)cc4)n3)cc2)o1 [compound 87, 2-(difluoromethyl)-5-(4-((5-(4-(piperidin-1-ylmethyl)phenyl)-2H-tetrazol-2-yl)methyl)phenyl)-1,3,4-oxadiazole] | > 200 | 0.034
CC1(C)CN(c2cccc(-c3cn(Cc4c(F)cc(-c5nnc(C(F)F)o5)cc4F)nn3)c2)C1=O [compound 92, 1-(3-(1-(4-(5-(difluoromethyl)-1,3,4-oxadiazol-2-yl)-2,6-difluorobenzyl)-1H-1,2,3-triazol-4-yl)phenyl)-3,3-dimethylazetidin-2-one] | > 200 | 0.035
